Earlier results in publication PMC4412257, “2′,6′-Dimethylphenylalanine: A Useful Aromatic Amino Acid Surrogate for Tyr or Phe Residue in Opioid Peptides” (International Journal of Medicinal Chemistry, 2012).
No end group written: not given here.

Columns and labels:
μ-opioid receptor = conditions: rat brain homogenate; read-out: IC50 ± SEM, opioid receptor, [3H]DAMGO (μ); cited from earlier work
δ-opioid receptor = conditions: rat brain homogenate; read-out: IC50 ± SEM, opioid receptor, [3H]DT (δ); cited from earlier work
[1] = set-up: method as in PMID 16321540; conditions: determined by HPLC; cited from earlier work
κ-opioid receptor = biological target: κ-opioid receptor; set-up: method as in PMID 16321540; conditions: guinea pig brain homogenate; read-out: IC50 ± SEM, opioid receptor, [3H]U-69593 (κ); cited from earlier work
human ORL1 receptor = biological target: human ORL1 receptor; set-up: method as in PMID 16321540; conditions: read-out: IC50 ± SEM, ORL1 receptor, [3H]NOC; cell membrane expressing human ORL1 receptor in Hek-293 cells; cited from earlier work
Aminopeptidase M = tested on: Aminopeptidase M; set-up: method as in PMID 16321540; conditions: determined by HPLC; cited from earlier work
guinea pig ileum (GPI) = tested on: guinea pig ileum (GPI); set-up: method as in PMID 16321540; conditions: cited from earlier work; for IC50: DYN analogs, read-out: GPI assay IC50 ± SEM; for Ke value of receptor selective antagonist CTAP (μ) / Ke value of receptor selective antagonist N,N(Me)2Dmt-Tic-OH (δ) / Ke value of receptor selective antagonist nor-BNI (κ): GPI assay, antagonist against the peptide

| Substance | IC50 (μ-opioid receptor) [nM] | IC50 (δ-opioid receptor) [nM] | Half-life time, Rat brain homogenate [1] [min] | IC50 (κ-opioid receptor) [nM] | IC50 (human ORL1 receptor) [nM] | Half-life time, Aminopeptidase M (Aminopeptidase M) [min] | IC50 (guinea pig ileum (GPI)) [nM] | Ke value of receptor selective antagonist CTAP (μ) (guinea pig ileum (GPI)) [nM] | Ke value of receptor selective antagonist N,N(Me)2Dmt-Tic-OH (δ) (guinea pig ileum (GPI)) [nM] | Ke value of receptor selective antagonist nor-BNI (κ) (guinea pig ileum (GPI)) [nM] |
| --- | --- | --- | --- | --- | --- | --- | --- | --- | --- | --- |
| [Dmp^4]NOC(1-13)-NH2 [compound 29] | 629 ± 433 | > 10000 | 33.6 | 299 ± 63 | 51.6 ± 12.9 | – | – | – | – | – |
| [Dmp^1]NOC(1-13)-NH2 [compound 30] | 25 ± 6.5 | 292 ± 61 | 60.3 | 38.8 ± 16.7 | 0.814 ± 0.09 | 28 | – | – | – | – |
| [Dmp^4]DYN(1-13)-NH2 [compound 26] | 22.4 ± 10.2 | 931 ± 723 | 315 | 0.044 ± 0.035 | 188 ± 18.2 | – | 32.2 ± 9.16 | 108 | 198 | 0.63 |
| [Dmp^1]DYN(1-13)-NH2 [compound 27] | 16.4 ± 2.35 | 10.1 ± 6.02 | 577 | – | 6.6 ± 0.952 | >30 | 306 ± 68 | 115 | >1000 | 10 |
| Met-enkephalin [reference compound] | – | – | 8.5 | – | – | <5 | – | – | – | – |
| [Dmp^1,4]DYN(1-13)-NH2 [compound 28] | 251 ± 56.3 | 415 ± 185 | 770 | 5.45 ± 1.65 | 51.5 ± 1.62 | – | 1340 ± 303 | 595 | – | 809 |
| Phe-Gly-Gly-Phe-Thr-Gly-Ala-Arg-Lys-Ser-Ala-Arg-Lys-Leu-Ala-Asn-Gln [NOC, reference compound] | 1540 ± 601 | > 10000 | – | 643 ± 218 | – | – | – | – | – | – |
| [Dmp^1,4]NOC(1-13)-NH2 [compound 31] | 56.8 ± 12.3 | 3410 ± 990 | 27.1 | 100 ± 29 | 21.3 ± 3.2 | – | – | – | – | – |
| DYN(1-13)-NH2 (YGGFLRRIRPKLK-NH2; UniProt P01213 207-219, looked up, fragment) [parent peptide, dynorphin A (1-13) amide, reference compound] | – | – | 435 | – | 18.8 ± 3.01 | 15.5 | 3.14 ± 1.13 | – | – | – |
